This passage reports inhibition, IC50 and EC50 results from ChEMBL document CHEMBL4842383 (J Med Chem, 2021).

Bounds are passed on as bounds.

By inhibition is commonly meant the change of the read-out against control, counted positive when it falls. The IC50 is the concentration at which inhibition is half-maximal. Broadly, the EC50 is the midpoint of the concentration-response curve.

One assay concerns the target Aurora kinase B (Homo sapiens, UniProt Q96GD4). Description: Inhibition of human recombinant full length GST-AURKB using tetra(-LRRASLG) peptide as substrate at 0.1 uM incubated for 20 mins by ATP Kinase Glo assay. The assay is classed as biochemical. As to conditions: Sf9.
The target in assay [1] is Macrophage colony-stimulating factor 1 receptor (Homo sapiens, UniProt P07333). Description: Inhibition of human recombinant GST-CSF1R (residues L534 to C972) expressed in Sf9 insect cells using poly(Glu,Tyr) as substrate incubated for 20 mins by ATP Kinase Glo assay. (In Kinase-Glo more light means more ATP remaining.)
Chain of Macrophage colony-stimulating factor 1 receptor (P07333 whole entry, the tested form may be a part): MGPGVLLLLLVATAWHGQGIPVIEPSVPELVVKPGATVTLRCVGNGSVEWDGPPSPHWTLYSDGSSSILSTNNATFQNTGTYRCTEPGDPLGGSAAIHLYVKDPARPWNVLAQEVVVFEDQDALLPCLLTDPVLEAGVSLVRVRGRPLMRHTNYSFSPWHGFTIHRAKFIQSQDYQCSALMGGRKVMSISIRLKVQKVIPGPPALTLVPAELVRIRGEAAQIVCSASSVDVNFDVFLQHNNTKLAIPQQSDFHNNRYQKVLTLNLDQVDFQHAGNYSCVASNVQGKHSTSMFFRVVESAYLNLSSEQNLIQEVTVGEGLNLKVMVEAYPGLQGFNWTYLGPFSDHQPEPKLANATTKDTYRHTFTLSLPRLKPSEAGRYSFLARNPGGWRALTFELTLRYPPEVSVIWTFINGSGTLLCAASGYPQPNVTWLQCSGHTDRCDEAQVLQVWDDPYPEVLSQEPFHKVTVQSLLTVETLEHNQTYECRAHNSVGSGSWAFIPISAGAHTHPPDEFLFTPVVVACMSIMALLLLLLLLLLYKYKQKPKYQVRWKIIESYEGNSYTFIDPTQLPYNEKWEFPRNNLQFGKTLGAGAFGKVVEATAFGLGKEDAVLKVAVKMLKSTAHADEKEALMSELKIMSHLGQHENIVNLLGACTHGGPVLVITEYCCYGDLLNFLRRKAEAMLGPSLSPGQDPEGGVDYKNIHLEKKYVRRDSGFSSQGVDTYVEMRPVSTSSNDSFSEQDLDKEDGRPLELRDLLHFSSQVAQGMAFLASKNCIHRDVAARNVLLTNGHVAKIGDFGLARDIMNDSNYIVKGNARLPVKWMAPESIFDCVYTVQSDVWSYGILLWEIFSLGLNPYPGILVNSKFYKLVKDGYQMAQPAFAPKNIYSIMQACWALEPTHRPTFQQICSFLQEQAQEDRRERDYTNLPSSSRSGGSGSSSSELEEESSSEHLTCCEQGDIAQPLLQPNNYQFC
For a further assay, the target named is T1, Aurora kinase A (Homo sapiens, UniProt O14965).
T1 sequence (O14965 whole entry): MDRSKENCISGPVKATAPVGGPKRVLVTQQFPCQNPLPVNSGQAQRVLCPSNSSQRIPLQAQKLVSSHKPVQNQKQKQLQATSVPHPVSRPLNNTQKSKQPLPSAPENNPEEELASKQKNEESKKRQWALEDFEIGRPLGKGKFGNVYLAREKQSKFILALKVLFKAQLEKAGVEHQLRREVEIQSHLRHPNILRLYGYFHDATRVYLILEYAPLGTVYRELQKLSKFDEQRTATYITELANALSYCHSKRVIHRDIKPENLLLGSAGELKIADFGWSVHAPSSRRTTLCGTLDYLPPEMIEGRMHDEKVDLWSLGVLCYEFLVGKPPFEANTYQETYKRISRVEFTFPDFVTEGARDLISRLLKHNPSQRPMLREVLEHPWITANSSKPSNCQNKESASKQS
The assay can be described thus: Inhibition of recombinant GST-AURKA (residues Ser123 to Ser401) (unknown origin) expressed in Sf9 insect cells using tetra(-LRRASLG) peptide as substrate incubated for 90 mins by ATP Kinase Glo assay.

In assay [2] the target is T2, Aurora kinase A (Homo sapiens) (UniProt O14965).
T2 sequence (whole entry): T1 sequence (O14965 whole entry)
The assay can be described thus: Inhibition of recombinant GST-AURKA (residues Ser123 to Ser401) (unknown origin) expressed in Sf9 insect cells using tetra(-LRRASLG) peptide as substrate at 1 uM incubated for 90 mins by ATP Kinase Glo assay.

The next assay concerns BaF3. Description: Antiproliferative activity against mouse BaF3 cells transfected with human ETV6-CSF1R assessed as reduction in cell viability measured after 72 hrs by MTS method. To be noted: BaF3, 72 h. In general terms: Formazan colour is commonly taken as a measure of viable cells.
For a further assay, the system named is NFS-60. Description: Antiproliferative activity against mouse NFS-60 cells transfected with human ETV6-CSF1R assessed as reduction in cell viability measured after 72 hrs by MTS method. The assay is classed as functional, cell-based. As to conditions: NFS-60, 72 h.

Chain of Aurora kinase B (Q96GD4 whole entry, the tested form may be a part): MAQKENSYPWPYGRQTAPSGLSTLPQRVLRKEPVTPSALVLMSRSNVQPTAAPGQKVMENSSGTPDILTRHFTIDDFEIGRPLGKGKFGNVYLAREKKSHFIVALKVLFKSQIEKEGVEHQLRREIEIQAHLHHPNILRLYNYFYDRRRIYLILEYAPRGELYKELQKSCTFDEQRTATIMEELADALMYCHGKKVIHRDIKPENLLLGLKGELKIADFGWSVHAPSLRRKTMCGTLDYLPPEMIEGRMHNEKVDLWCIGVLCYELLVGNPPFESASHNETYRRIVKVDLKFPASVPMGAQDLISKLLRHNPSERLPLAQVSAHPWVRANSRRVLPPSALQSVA

With `O=C(Nc1cccc(Cl)c1)Nc1ncc(CCNc2ncnc3cc(F)ccc23)s1`, the inhibition at Aurora kinase B came out at 83%. Besides, the figures for the IC50 (in assay [1]; at Aurora kinase A) were above 10 nM and 9 nM, respectively.
`O=C(Nc1ccccc1)Nc1ccc(Oc2ncnc3cc(N4CCCC4)ccc23)cc1`: the inhibition (in assay [2]; on Aurora kinase B) was 43% throughout. Besides, the IC50 in assay [1] was determined as 63 nM.
For `CN(C)c1ccc2c(Oc3ccc(NC(=O)NCc4ccc(C(F)(F)F)cc4)cc3)ncnc2c1`, the values for the EC50 in the assay with BaF3 and in the assay with NFS-60 were 152 nM and 97 nM, respectively. For the same compound, the inhibition in assay [2] was 16%; at Aurora kinase B it was 25%. Besides, the IC50 in assay [1] was 91 nM.
For `CC(NC(=O)Nc1ccc(Oc2ncnc3cc(N(C)C)ccc23)cc1)c1nccs1` (stereo not drawn), in the assay on BaF3, the EC50 is 158 nM. In addition, the inhibition in assay [2] was found to be 6%. Besides, the IC50 in assay [1] is 1.41 nM.
As to `COc1ccc2c(Nc3ccc(NC(=O)Nc4ccccc4)cc3)ncnc2c1`, the inhibition turned out to be 56% in assay [2] and 24% on Aurora kinase B. Also, the IC50 in assay [1] came out at 124 nM.
Consider `CN(C)c1ccc2c(Oc3ccc(NC(=O)NCCc4ccccc4)cc3)ncnc2c1`, for which the EC50 with BaF3 is 82 nM; in the assay on NFS-60, 162 nM. Further, the inhibition (in assay [2]; at Aurora kinase B) was 35% in each case. Besides, in assay [1], the IC50 amounted to 15.4 nM.
With `CN(C)c1ccc2ncnc(Oc3ccc(NC(=O)Nc4ccccc4)cc3)c2c1`, the inhibition in assay [2] turned out to be 29%. Moreover, the IC50 in assay [1] was 41 nM.
`COc1ccccc1NC(=O)Nc1ccc(Oc2ncnc3cc(N(C)C)ccc23)cc1`: the EC50 turned out to be 116 nM in the assay on BaF3 and 144 nM in the assay with NFS-60. The figures for the inhibition (in assay [2]; at Aurora kinase B) were 24% and 53%, respectively. In assay [1], the IC50 stood at 30 nM.
Turning to `CN(C)c1ccc2c(Oc3ccc(NC(=O)NCc4ccc(C#N)cc4)cc3)ncnc2c1`, the EC50 is 14.1 nM in the assay on BaF3 and 23 nM with NFS-60. For the same compound, the inhibition in assay [2] was 5%. Moreover, in assay [1], the IC50 came to 50 nM.
With `CN(C)c1ccc2c(Oc3ccc(NC(=O)Nc4cccc(Cl)c4)cc3)ncnc2c1`, the EC50 in the assay on BaF3 turned out to be 20 nM; with NFS-60 it was 55 nM. Moreover, the inhibition in assay [2] amounted to 71%; on Aurora kinase B it was 82%. In addition, in assay [1], the IC50 worked out at 10.5 nM.
As for `COc1ccc(CNC(=O)Nc2ccc(Oc3ncnc4cc(N(C)C)ccc34)cc2)cc1OC`, the EC50 in the assay on BaF3 turned out to be 133 nM. In assay [2], the inhibition came out at 4%. The IC50 in assay [1] turned out to be 83 nM.
As to `COc1cccc(NC(=O)Nc2ccc(Oc3ncnc4cc(N(C)C)ccc34)cc2)c1`, the EC50 was 65 nM with BaF3 and 108 nM in the assay with NFS-60. Further, the inhibition in assay [2] came to 46%; on Aurora kinase B, 79%. For the same compound, in assay [1], the IC50 is 11.6 nM.
With `CNc1ccc2c(Oc3ccc(NC(=O)Nc4ccccc4)cc3)ncnc2c1`, the inhibition in assay [2] turned out to be 57%; on Aurora kinase B, 76%. For the same compound, the IC50 in assay [1] came to 44 nM.
Turning to `CN(C)c1ccc2c(Oc3ccc(NC(=O)Nc4ccccc4Cl)cc3)ncnc2c1`, the EC50 in the assay with BaF3 was determined as 66 nM; with NFS-60, 145 nM. Besides, the inhibition in assay [2] came to 43%; on Aurora kinase B it was 79%. The IC50 in assay [1] amounted to 15.4 nM.
As to `CN(C)c1ccc2c(Oc3ccc(NC(=O)Nc4ccc(C(F)(F)F)cc4)cc3)ncnc2c1`, the EC50 with BaF3 amounted to 49 nM. The inhibition in assay [2] was 46%; on Aurora kinase B it was 37%. Also, the IC50 in assay [1] turned out to be 64 nM.
`CN(C)c1ccc2c(Oc3ccc(NC(=O)Nc4ccccc4)cc3)ncnc2c1`: the values for the EC50 with BaF3 and with NFS-60 were 66 nM and 92 nM, respectively. The inhibition in assay [2] came to 40%; at Aurora kinase B, 61%. Further, in assay [1], the IC50 is 21 nM.
With `COc1ccc(Cl)cc1NC(=O)Nc1ccc(Oc2ncnc3cc(N(C)C)ccc23)cc1`, the EC50 was 86 nM in the assay on BaF3 and 141 nM in the assay with NFS-60. The inhibition in assay [2] turned out to be 70%; on Aurora kinase B, 41%. Moreover, in assay [1], the IC50 came to 36 nM.
Consider `CN(C)c1ccc2c(Oc3ccc(NC(=O)NCc4ccn(C)n4)cc3)ncnc2c1`, for which the EC50 in the assay with BaF3 came to 167 nM. In assay [2], the inhibition turned out to be 58%. The IC50 in assay [1] came to 204 nM.
Consider `O=C(Nc1ccccc1)Nc1ccc(Oc2ncnc3cc(F)ccc23)cc1`, for which the inhibition in assay [2] came out at 13%; at Aurora kinase B, 27%. The IC50 in assay [1] amounted to 753 nM.
`CN(C)c1ccc2c(Nc3ccc(NC(=O)Nc4ccccc4)cc3)ncnc2c1`: the inhibition was 33% in assay [2] and 27% on Aurora kinase B. Further, the IC50 in assay [1] was found to be 243 nM.
`CN(C)c1ccc2c(Oc3ccc(NC(=O)Nc4ccc(Cl)cc4)cc3)ncnc2c1`: the EC50 with BaF3 stood at 18.4 nM; in the assay on NFS-60, 25 nM. Also, the inhibition in assay [2] came out at 70%; on Aurora kinase B, 50%. In assay [1], the IC50 is 164 nM.
`CN(C)CCCOc1ccc2c(NCCc3cnc(NC(=O)Nc4cccc(Cl)c4)s3)ncnc2c1`: in assay [1], the 50% inhibitory concentration (IC50) is 19 nM.
Turning to `Nc1ccc2c(Oc3ccc(NC(=O)Nc4ccccc4)cc3)ncnc2c1`, the inhibition in assay [2] turned out to be 47%; at Aurora kinase B, 74%. The IC50 in assay [1] was determined as 58 nM.
As to `CN(C)c1ccc2c(Oc3ccc(NC(=O)Nc4cccc(C(F)(F)F)c4)cc3)ncnc2c1`, the EC50 in the assay with BaF3 came out at 45 nM. Besides, the inhibition in assay [2] came out at 35%; at Aurora kinase B it was 60%. Besides, the IC50 in assay [1] came out at 64 nM.
As for `CN(C)c1ccc2c(Oc3ccc(NC(=O)NCc4nccs4)cc3)ncnc2c1`, the EC50 in the assay on BaF3 is 318 nM; with NFS-60 it was 202 nM. Besides, the inhibition in assay [2] amounted to 2%; on Aurora kinase B, 19%. Besides, the IC50 in assay [1] came to 24 nM.
In the case of `CN(C)c1ccc2c(Oc3ccc(NC(=O)NCc4c(F)c(F)c(F)c(F)c4F)cc3)ncnc2c1`, the EC50 in the assay with BaF3 was 108 nM. The inhibition is 3% in assay [2] and 34% on Aurora kinase B. Also, the IC50 in assay [1] was 18.6 nM.
With `O=C(Nc1ccccc1)Nc1ccc(Oc2ncnc3ccc(N4CCCC4)cc23)cc1`, the inhibition in assay [2] came to 11%. The concentration for half-maximal inhibition (IC50) in assay [1] is above 10 nM.
With `COc1ccc2c(Oc3ccc(NC(=O)Nc4ccccc4)cc3)ncnc2c1`, the inhibition turned out to be 36% in assay [2] and 48% at Aurora kinase B. In assay [1], the IC50 is 76 nM.
With `COc1ccc2c(NCCc3cnc(NC(=O)Nc4cccc(Cl)c4)s3)ncnc2c1`, the inhibition at Aurora kinase B is 89%. In addition, the IC50 was determined as 112 nM in assay [1] and 9 nM on Aurora kinase A.
With `CN(C)c1ccc2c(Oc3ccc(NC(=O)NCc4ccccc4)cc3)ncnc2c1`, the EC50 was determined as 85 nM with BaF3 and 58 nM with NFS-60. Further, the inhibition (in assay [2]; at Aurora kinase B) was 7% in each case. In assay [1], the IC50 came to 16.3 nM.
With `COc1cc(Oc2ccnc3cc(OC)c(OC)cc23)ccc1NC(=O)NC(C)c1nccs1` (stereo not drawn), the EC50 was 76 nM in the assay with BaF3 and 77 nM in the assay with NFS-60. In addition, the inhibition in assay [2] worked out at 42%; on Aurora kinase B, 47%.
For the compound `COc1cc2ncnc(Oc3ccc(NC(=O)Nc4ccccc4)cc3)c2cc1OC`, the inhibition in assay [2] is 46%. Besides, in assay [1], the IC50 came to 30 nM.
As to `CN(C)c1ccc2c(Oc3ccc(NC(=O)NCc4ccc(S(N)(=O)=O)cc4)cc3)ncnc2c1`, the EC50 came out at 662 nM with BaF3 and 1090 nM with NFS-60. Also, the inhibition in assay [2] is 2%; at Aurora kinase B it was 62%. Also, the IC50 in assay [1] came to 16.3 nM.
On the same counts, the results for `CN(C)c1ccc2c(Oc3ccc(NC(=O)NCc4cccnc4)cc3)ncnc2c1` are 87 nM, 152 nM, 1%, 15% and 79 nM.
The corresponding values for `COc1ccc(NC(=O)Nc2ccc(Oc3ncnc4cc(N(C)C)ccc34)cc2)cc1Cl` are 43 nM, 53 nM, 53%, 44% and 11.1 nM.
